{"source": "patent US9556437B2", "about": "“FAT1 gene in cancer and inflammation” (DEPARTMENT OF BIOTECHNOLOGY (DBT), priority 2012, dated 2017)", "assay_type_in_all_cases": "cell-based, human", "key": {"COX-2": {"test_system": "COX-2", "assay": "Western blot COX-2 protein", "conditions": "U87MGsiFAT1 vs siControl", "experimental": "(§1) Western Blotting Analyses: Cells were lysed in triple detergent buffer containing protease and phosphatase inhibitors (Sigma Aldrich), lysates were quantified by BCA kit (Pierce, Thermo Fisher Scientific, Rockford, Ill. USA) and electrophoresed in 10% SDS-PAGE and electroblotted on nitrocellulose membrane (Millipore, Billerica, Mass., USA). Membrane was blocked with 5% bovine serum albumin (BSA) in 1×TBS at 4° C. for overnight. Primary and secondary antibody was diluted in 5% BSA and 0.1% tween-20 in 1×TBS. Blot was incubated in primary antibody overnight at 4° C. followed by secondary antibody incubation for 2 hrs at room temperature. Blot was developed by BCIP-NBT (Promega, Madison, Wis., USA) and captured using Alpha Imager EP software."}, "VEGF-C": {"test_system": "VEGF-C", "assay": "VEGF-C mRNA expression by q-PCR", "conditions": "U87MGsiFAT1 cells", "experimental": "(§2) Cell Culture and siRNA Transfection: The human glioma cell lines U87MG, U373, A172, T98G, GOS3 and SW1088 were obtained from ATCC; Rockville, Md., cultured in DMEM (Sigma-Aldrich, Switzerland) supplemented with 10% (v/v) FCS (Sigma-Aldrich), 3.7 g/l sodium bicarbonate (Sigma-Aldrich), Ciprofloxacin 10 μg/ml and 5% CO2 at 37° C. For transfection, 2×10^5 cells were seeded per 25 cm^2 flask. After 24 hrs, cells were transfected with FAT1 siRNA and universal medium GC control siRNA (Invitrogen) according to the manufacturer's protocol with a final concentration of 20 nM of siRNA using LIPOFECTAMINE 2000 (Invitrogen) and Opti-Mem media (Invitrogen). After 4 hrs of siRNA transfection, the media was supplemented with DMEM containing 2×FCS. The ability of each siRNA to mediate knockdown of FAT1 mRNA was confirmed using qRT-PCR. Photomicrographs of the cells were taken using an inverted phase contrast microscope (Nikon TMS, Phase contrast microscope, Japan). For simultaneous knockdown of FAT1 and PDCD4, siRNA from Dharmacon were used. Transfection was performed as earlier with 50 nM of FAT1 siRNA along with 50 nM of PDCD4 siRNA or 50 nM of control siRNA.\ncDNA Synthesis and Quantitative PCR: Total RNA was isolated from cells at appropriate time point (vide supra) using TRIzol reagent (Invitrogen), quantified using a Nanodrop ND-1000 spectrophotometer. […]"}, "phospho-c-jun": {"test_system": "phospho-c-jun", "assay": "Western blot phospho-c-jun (Ser63)", "conditions": "U87MGsiFAT1 vs siControl", "experimental": "as §1"}, "U87MG cells": {"test_system": "U87MG cells", "assay": "Apoptosis by caspase3 Western blot and DAPI staining", "conditions": "72 hrs of transfection"}, "c-jun": {"test_system": "c-jun", "assay": "Western blot total c-jun", "conditions": "U87MGsiFAT1 vs siControl", "experimental": "as §1"}, "IL6": {"test_system": "IL6", "assay": "IL6 mRNA expression by q-PCR", "conditions": "U87MGsiFAT1 vs siControl", "experimental": "as §2, with “The ability of each siRNA to mediate knockdown of FAT1 mRNA was confirmed using qRT-PCR.” left out\ncDNA Synthesis and Quantitative PCR: Total RNA was isolated from cells at appropriate time point (vide supra) using TRIzol reagent (Invitrogen), quantified using a Nanodrop ND-1000 spectrophotometer."}, "ECM protease activity": {"test_system": "ECM protease activity", "assay": "Gelatin zymography", "conditions": "conditioned media of U87MG cells, 72 hrs, vs siControl", "experimental": "Gelatin Zymography: U87MG cells (2.5×10^5 cells/flask) were plated into 25 cm^2 flask. Transfection was performed on day 1 and after 72 hrs, the conditioned medium was collected, clarified by centrifugation, concentrated by Centricon YM-30 (10:1 concentration; Millipore, Billerica, Mass., USA), and separated in non-reducing polyacrylamide gels containing 0.1% (wt/vol) gelatin. The gel was incubated with 1× Zymogram renaturing buffer for 30 min at room temperature, 1× Zymogram developing buffer for 30 min at room temperature, and 1× Zymogram developing buffer at 37° C. for overnight. The gel was then stained for protein with 0.25% (w/v) Coomassie Blue R-250 and then destained with Coomassie R-250 destaining solution (Methanol:Acetic acid:Water (50:10:40). Proteolysis was detected as a white zone in a dark field."}}, "note": "“Also recorded” adds a separate entry of the source."}
{"substance": "siFAT1: FAT1 specific siRNA (Invitrogen), FAT Stealth RNAi siRNA-I (HSS103567), used for further experiments (sense CCCAACACACCUGUGGUCAUGGUAA; antisense UUACCAUGACCACAGGUGUGUUGGG; Stealth modification, chemistry not fully specified; listed as Homo sapiens)", "values": [{"measurement": "COX-2 protein expression", "setting": "COX-2", "value": "Significant reduction; also recorded: decreased"}, {"measurement": "decrease in VEGF-C mRNA expression", "setting": "VEGF-C", "value": "more than 10 fold"}, {"measurement": "c-jun phosphorylation (p-c-jun level)", "setting": "phospho-c-jun", "value": "significantly decreased; also recorded: significant reduction"}, {"measurement": "DNA fragmentation (DAPI staining)", "setting": "U87MG cells", "value": "no DNA fragmentation; also recorded: No differences"}, {"measurement": "cleaved caspase-3 (Western blot)", "setting": "U87MG cells", "value": "no cleaved caspase-3; also recorded: No differences"}, {"measurement": "total c-jun protein level", "setting": "c-jun", "value": "reduction"}, {"measurement": "reduction in IL6 mRNA expression", "setting": "IL6", "value": "~10", "unit": "fold"}, {"measurement": "ECM protease activity", "setting": "ECM protease activity", "value": "decreased; also recorded: reduced protease activity"}]}
